# According to the supplement of paper PMC13380429:
# Assays:
# Details in all cases: 72 h
# [1] = system: Vero E6; test: drug sensitivity score (DSS) for viability; higher = more toxic; extreme values may be limits of the assay
# [2] = system: HepG2; test: as above
# [3] = system: U2OS; test: as above
# [4] = system: Caco-2; test: as above
# [5] = system: Calu-3; test: as above
# [6] = system: Vero E6; test: cell viability relative to DMSO; higher = less toxic
# [7] = system: HepG2; test: as above
# [8] = system: U2OS; test: as above
# [9] = system: Caco-2; test: as above
# [10] = system: Calu-3; test: as above
# [11] = system: Vero E6; test: relative viability EC50 (midpoint between 100% and the lowest measured viability); higher = less toxic
# [12] = system: HepG2; test: as above
# [13] = system: U2OS; test: as above
# [14] = system: Caco-2; test: as above
# [15] = system: Calu-3; test: as above
Compound,drug sensitivity score [1],drug sensitivity score [2],drug sensitivity score [3],drug sensitivity score [4],drug sensitivity score [5],cell viability ([6]; 1 nM),cell viability ([6]; 10 nM),cell viability ([6]; 100 nM),cell viability ([6]; 1000 nM),cell viability ([6]; 10000 nM),cell viability ([7]; 1 nM),cell viability ([7]; 10 nM),cell viability ([7]; 100 nM),cell viability ([7]; 1000 nM),cell viability ([7]; 10000 nM),cell viability ([8]; 1 nM),cell viability ([8]; 10 nM),cell viability ([8]; 100 nM),cell viability ([8]; 1000 nM),cell viability ([8]; 10000 nM),cell viability ([9]; 1 nM),cell viability ([9]; 10 nM),cell viability ([9]; 100 nM),cell viability ([9]; 1000 nM),cell viability ([9]; 10000 nM),cell viability ([10]; 1 nM),cell viability ([10]; 10 nM),cell viability ([10]; 100 nM),cell viability ([10]; 1000 nM),cell viability ([10]; 10000 nM),relative viability EC50 [11],relative viability EC50 [12],relative viability EC50 [13],relative viability EC50 [14],relative viability EC50 [15]
CCO/N=C(\C(=O)N[C@@H]1C(=O)N2C(C(=O)[O-])=C(Sc3nc(-c4cc[n+](C)cc4)cs3)CS[C@H]12)c1nsc(NP(=O)(O)O)n1 [ceftaroline-fosamil],0,0,0,0,0,106%,99.6%,107%,97.9%,102%,116%,95.2%,105%,101%,104%,103%,106%,99.5%,107%,102%,94.2%,101%,89.4%,105%,93.2%,116%,109%,98.4%,106%,98.6%,> 10 µM,> 10 µM,> 10 µM,> 10 µM,> 10 µM
CC(=O)O[C@H]1C[C@H](O[C@H]2[C@@H](O)C[C@H](O[C@H]3[C@@H](O)C[C@H](O[C@H]4CC[C@@]5(C)[C@H](CC[C@@H]6[C@@H]5C[C@@H](O)[C@]5(C)[C@@H](C7=CC(=O)OC7)CC[C@]65O)C4)O[C@@H]3C)O[C@@H]2C)O[C@H](C)[C@H]1O[C@@H]1O[C@H](CO)[C@@H](O)[C@H](O)[C@H]1O [lanatoside-C],27.8,15,19.5,19.5,15.2,92.5%,92%,23.4%,0.8%,0.9%,99.4%,97.7%,83.3%,30.9%,5.9%,101%,97.3%,87.4%,3.4%,6.7%,102%,99%,66.4%,17.6%,18.4%,107%,95.1%,80.7%,30.6%,18.7%,0.0458 µM,0.396 µM,0.211 µM,0.116 µM,0.248 µM
CC(C)NCC(O)c1cc(O)cc(O)c1 (stereo not given) [metaproterenol],0,0,0,0,0,94.4%,95.6%,92.7%,94.7%,113%,98.6%,110%,108%,108%,108%,98.3%,96.8%,98.9%,98.7%,102%,93.4%,90.8%,104%,106%,95.1%,101%,97.2%,106%,108%,98%,> 10 µM,> 10 µM,> 10 µM,> 10 µM,> 10 µM
CC[C@H](CC[C@@H](C)[C@H]1CC[C@H]2[C@@H]3CC=C4C[C@@H](O)CC[C@]4(C)[C@H]3CC[C@]12C)C(C)C [beta-Sitosterol],0,0,0,0,0,92.7%,105%,92.4%,99.2%,108%,88.3%,114%,93.3%,98.8%,109%,96.4%,99.1%,99.6%,101%,97.4%,95.1%,108%,99.4%,97.6%,107%,91.6%,105%,99%,93.7%,106%,> 10 µM,> 10 µM,> 10 µM,> 10 µM,> 10 µM
CCCCNc1c(C(=O)OCC)c(C)nc2c1cnn2CC [tracazolate],0,0,0,0,0.1,93%,97.7%,96.9%,96.7%,96.5%,97.6%,104%,92.5%,106%,99.3%,101%,93.2%,102%,97.7%,93.6%,93.3%,96.1%,97.2%,92.7%,101%,101%,85.1%,98.6%,102%,86.4%,> 10 µM,> 10 µM,> 10 µM,> 10 µM,> 10 µM
CC(=O)O[C@@]12CO[C@@H]1C[C@H](O)[C@@]1(C)C(=O)[C@H](O)C3=C(C)[C@@H](O)C[C@@](O)([C@@H](OC(=O)c4ccccc4)[C@H]21)C3(C)C [10-deacetylbaccatin],0,0,0,0,0,97.6%,96.1%,95.6%,95.1%,106%,93.9%,105%,97.3%,108%,108%,98.4%,99.3%,104%,102%,107%,102%,110%,92.6%,99%,102%,105%,95.6%,94.9%,97.4%,108%,> 10 µM,> 10 µM,> 10 µM,> 10 µM,> 10 µM
Clc1ccc(N2CCN(Cc3c[nH]c4ncccc34)CC2)cc1,0,1.1,0,0.1,0,94.9%,102%,97.4%,96.2%,102%,102%,93.8%,97.1%,93.6%,79.8%,96.1%,98.2%,95.9%,102%,92.2%,103%,98.1%,95.5%,93.5%,87%,88.6%,99.1%,101%,92.9%,87.9%,> 10 µM,> 10 µM,> 10 µM,> 10 µM,> 10 µM
COc1ccc(-c2ccc3c(N4CCOC[C@@H]4C)nc(N4CCOC[C@@H]4C)nc3n2)cc1CO [AZD8055],15,19.7,20,18.8,23,96.9%,89.7%,69.9%,40.1%,30.3%,99.4%,90.8%,54.7%,27.1%,18.9%,99%,102%,57.5%,22.8%,16.1%,94.3%,88.2%,54%,34.6%,28.2%,101%,83.7%,37.6%,26.4%,27.2%,0.123 µM,0.0808 µM,0.101 µM,0.0545 µM,0.0265 µM
CCCCC(=O)O[C@]1(C(=O)CO)[C@@H](C)C[C@H]2[C@@H]3CCC4=CC(=O)C=C[C@]4(C)[C@@]3(F)[C@@H](O)C[C@@]21C [BETAMETHASONE VALERATE],0,0.6,0,0,0,105%,102%,95.4%,91.1%,95.6%,107%,114%,90%,107%,76.4%,95.8%,96.2%,95%,94.8%,92.4%,103%,86.2%,113%,110%,96.1%,105%,101%,95.2%,93.7%,117%,> 10 µM,> 10 µM,> 10 µM,> 10 µM,> 10 µM
N#CC(c1ccccc1)(c1ccccc1)c1ccccc1Cl [TRAM-39],0,0,0,0,0,103%,97.8%,97.8%,95.2%,98.5%,105%,102%,93.7%,92.7%,103%,101%,96.5%,95.7%,97.3%,94.3%,94.3%,93.2%,90.8%,96.9%,92.6%,93.8%,93%,107%,106%,92.9%,> 10 µM,> 10 µM,> 10 µM,> 10 µM,> 10 µM
CC(C)=CCC[C@](C)(O[C@@H]1O[C@H](CO)[C@@H](O)[C@H](O)[C@H]1O)[C@H]1CC[C@]2(C)[C@@H]1[C@H](O)C[C@@H]1[C@@]3(C)CC[C@H](O[C@@H]4O[C@H](CO)[C@@H](O)[C@H](O)[C@H]4O[C@@H]4O[C@H](CO)[C@@H](O)[C@H](O)[C@H]4O)C(C)(C)[C@@H]3CC[C@]12C [ginsenoside-RD],0,0.3,0,0,0,99.6%,101%,97.2%,100%,99.3%,94.2%,97.3%,101%,88.9%,89.6%,102%,98.9%,101%,100%,102%,105%,98.7%,94.4%,92.3%,104%,105%,103%,101%,107%,99.8%,> 10 µM,> 10 µM,> 10 µM,> 10 µM,> 10 µM
CCC1(CC)C(=O)C=CNC1=O [pyrithyldione],0,0,0,0,0,93.5%,107%,97.5%,102%,93.6%,91%,92%,94.9%,104%,95.1%,98.2%,95%,97.8%,95.1%,96.6%,100%,93.1%,93.4%,92.3%,102%,93.1%,94.1%,99.5%,99.9%,96.7%,> 10 µM,> 10 µM,> 10 µM,> 10 µM,> 10 µM
N#CCCCSC(=N)N [kevetrin],0,0,0,0,0,96.6%,98.4%,92.6%,101%,98.9%,107%,97.4%,101%,93.6%,101%,97.9%,102%,96.3%,97.5%,96.3%,92%,99.3%,96.6%,99.8%,99.7%,108%,90.9%,92.8%,105%,93.1%,> 10 µM,> 10 µM,> 10 µM,> 10 µM,> 10 µM
